The text below walks through data of ChEMBL document CHEMBL1157539, “Thousands of chemical starting points for antimalarial lead identification” (Nature, 2010).

The test concerns Plasmodium falciparum. Put plainly: GSK_TCMDC: Inhibition of Plasmodium falciparum 3D7 in whole erythrocytes, using parasite LDH activity as an index of growth. The format is functional, organism-based. The conditions noted are these: Plasmodium falciparum, 3D7.
`Oc1ccccc1CNCC(O)c1cccc(C(F)(F)F)c1` (stereo not drawn) had an XC50 of 526 nM.

Take `O=C(Nc1cccc(-c2cccc(-c3nc4cc(C(F)(F)F)ccc4[nH]3)c2)c1)c1cccnc1Cl`: the XC50 turned out to be 657 nM.

Take `COc1ccc(-c2nc3c4ccccc4c4ccc(I)cc4c3[nH]2)cc1`: the XC50 was found to be 1100 nM.

On to `Cc1ccc2[nH]c3ccccc3c(=O)c2c1`, for which the XC50 came out at 863 nM.

The compound `CCCCC1(NC(=O)[C@@H](Nc2ccc(C#N)c3ccccc23)C2CCCCC2)CCCCC1` registered an XC50 of 1120 nM.

The compound `Clc1ccc(-c2nc3cc(-c4ccc5nc(-c6ccc(Cl)cc6)[nH]c5c4)ccc3[nH]2)cc1` showed an XC50 of 241 nM.

In the case of `CC1CCCC(NC(=O)CCOc2ccccc2)C1` (stereo not drawn), the XC50 is 882 nM.

The compound `O=C(NCCCCN1CCCC2c3cccc(O)c3CCC21)c1ccc(-c2ccccc2)cc1` (stereo not drawn) displayed an XC50 of 1170 nM.

The compound `CCOCCCn1c(=N)c(C(=O)NCc2ccc(OC)cc2)cc2c(=O)n3cccc(C)c3nc21` displayed an XC50 of 1060 nM.

As for `CC(C)(C)NC(=O)c1ccc(Oc2ccc(OC(F)(F)F)cc2)c(NC(=O)C(C)(C)C)c1`, the XC50 was 977 nM.

For `Fc1ccc2[nH]c(-c3ccc(-c4cccc(CN5CCN(c6ccncc6)CC5)c4)cc3)nc2c1`, the XC50 worked out at 85.7 nM.

Regarding `CC1(C)CCCN(C(=O)Cc2ccc3c(c2)CCCC3)C1CN1CC=CC1` (stereo not drawn), the XC50 worked out at 720 nM.

`CN(CCCNCc1cccc2ccccc12)CCCNCc1cccc2ccccc12` registered an XC50 of 722 nM.

In the case of `CC[C@H](NC(=O)c1c(N)c(-c2sccc2Cl)nc2ccccc12)c1ccccc1`, the XC50 turned out to be 912 nM.

The compound `Cc1cc(O)c(-c2ccc(OCc3ccc(Cl)cc3)cc2)c(C)n1` came in with an XC50 of 732 nM.

Turning to `CCOc1c(OC)ccc2c1CCN(CCN1CCC(CNC(=O)c3ccc(-c4ccc(C#N)cc4)cc3)CC1)C2`, the XC50 was found to be 1080 nM.

The compound `NCc1ccc(CNCc2cccc(-c3ccc(-c4nc5ccccc5[nH]4)cc3)c2)cc1` returned an XC50 of 717 nM.

Consider `Cc1noc(-c2ccc(NC[C@@H](C)NC[C@H](O)c3cccc(Cl)c3)cc2)n1`, for which the XC50 was found to be 756 nM.

On to `CCCCc1cc(NCC)nc(Nc2cccc(OC)c2)n1`, for which the XC50 was 922 nM.

For `Fc1cccc(Cn2ncc3cc(Nc4ncnc5sc(C#Cc6ncc[nH]6)cc45)ccc32)c1`, the XC50 stood at 1800 nM.

Regarding `CS(=O)(=O)c1ccccc1CNC(=O)c1ccc(-c2ccc(-c3nc4cc(C(F)(F)F)ccc4[nH]3)s2)cc1`, the XC50 came out at 236 nM.

Take `CN(C)c1ccc(-c2ccc(C(=O)NC3CCN(Cc4ccccc4F)CC3)s2)cc1`: the XC50 is 1400 nM.

As for `N#Cc1ccc(C=NNc2nc3ccccc3[nH]2)cc1`, the XC50 came out at 1000 nM.

`CN1CCN(CCc2ccc3nc(-c4csc(Cc5cc(Cl)ccc5OCc5ccccc5)n4)[nH]c3c2)CC1`: the XC50 was determined as 750 nM.

The compound `O=[N+]([O-])c1ccc2c(c1)c1ccccc1n2Cc1ccccc1O` had an XC50 of 1110 nM.

`CC(C)Oc1ccc(N2CCN(CCCCNC(=O)c3ccc(NC(=O)c4ccc(Cl)cc4)cc3)CC2)c(OC(C)C)c1` displayed an XC50 of 512 nM.

For `Cc1cc(O)c(-c2cccc(Oc3ccc(Cl)cc3)c2)c(C)n1`, the XC50 was 736 nM.

Take `COc1cc(NC(=O)Nc2ccnc3ccccc23)cc(OC)c1`: the XC50 was determined as 469 nM.

`CN(C)c1ccc(CN2CCC(CNC(=O)c3cc(-c4ccccc4Cl)cs3)C2)cc1` (stereo not drawn) registered an XC50 of 1440 nM.

In turn, `CCCc1cc(NC2CCN(C)CC2)nc(Nc2ccc(F)cc2)n1` registered an XC50 of 801 nM.

In turn, `Cc1c(CNCCCNc2cc(=O)c3ccccc3[nH]2)sc(-c2ccco2)c1Br` gave an XC50 of 1020 nM.

With `O=C(NCCCCN1CCC(c2ccc3c(c2O)CCCC3)CC1)c1ccc(NC(=O)c2ccc(Cl)cc2)cc1`, the XC50 was found to be 243 nM.

Consider `COc1cccc2c(NN=Cc3cccc(Cl)c3)ccnc12`, for which the XC50 came to 838 nM.

With `CC(C)(C)c1cc(NC2CC2)nc(-c2ccccn2)n1`, the XC50 was determined as 719 nM.

The compound `COCCNCc1ccc(-c2ccc(CNc3ccc4ncccc4c3)cc2)cc1` yielded an XC50 of 1040 nM.

`O=C(NOCc1ccccc1)c1cc(Cl)ccc1O` returned an XC50 of 1100 nM.

`COc1ccc(NC(=O)[C@H](CC(C)C)Nc2cc(C)nc(NCc3ccccc3C)n2)cc1` gave an XC50 of 888 nM.

Regarding `COc1cc(C(=O)NCCCN2CCN(c3cc(Cl)ccc3OC)CC2)ccc1-c1nc2cc(Cl)c(Cl)cc2[nH]1`, the XC50 came to 731 nM.

The compound `COc1cccc2c(Oc3ccccc3C)ccnc12` displayed an XC50 of 1230 nM.

Compound `CN(C)CCn1cc(C(=O)c2cc(Cl)ccc2O)cc1-c1nc2ccccc2c(=O)[nH]1` came in with an XC50 of 634 nM.

Compound `O=C(CCc1ccco1)NC1CCN(CC2(c3ccc(Cl)cc3)CCC2)CC1` gave an XC50 of 1450 nM.

`CCN(CC)c1nc(Nc2cc(C)ccc2C)nc(Nc2ccccc2O)n1` registered an XC50 of 641 nM.

As for `c1ccc(Oc2ccc(Nc3ccnc(Nc4ccc(CN5CCOCC5)cc4)n3)cc2)cc1`, the XC50 was 941 nM.

In turn, `Cc1cccc(-c2nc(Nc3ccncc3)c3ccc([N+](=O)[O-])cc3n2)n1` registered an XC50 of 831 nM.

As for `CC(CCNc1c2ccccc2nc2ccccc12)N1CCN(C)CC1` (stereo not drawn), the XC50 was determined as 803 nM.

The compound `O=C(C=Cc1ccc(Br)cc1)NC1CCC(CN2CCC(c3c[nH]c4ccccc34)CC2)CC1` (stereo not drawn) returned an XC50 of 682 nM.

Consider `Cn1cnc(CCNC(=O)c2ccc(-c3cccc(-c4nc5cc(C(F)(F)F)ccc5[nH]4)c3)cc2)c1`, for which the XC50 is 726 nM.

For the compound `Cc1nc(C)c(-c2ccc(Oc3cccc(OC(F)(F)F)c3)cc2)c(O)c1Cl`, the XC50 came to 684 nM.

The compound `COC(=O)c1cccc(CN(CCC(O)(C(F)(F)F)C(F)(F)F)C(=O)CC2CCCC2)c1` showed an XC50 of 909 nM.

With `Cc1cc2nc(-c3ccc(C(=O)NCc4ccc(C(C)(C)C)cc4)cc3)[nH]c2cc1C`, the XC50 turned out to be 772 nM.

`COc1c(C2CCN(CCCCNC(=O)c3ccc(NC(=O)c4ccc(C#N)cc4)cc3)CC2)ccc2c1CCCC2` came in with an XC50 of 292 nM.

As to `O=C(/C=C/c1ccc(F)cc1)NC1CCC(CCN2CCc3ccccc3CC2)CC1` (stereo not drawn), the XC50 was determined as 1400 nM.

The compound `COc1ccc2[nH]c(/C=C/c3cccc4ccc(C)nc34)nc2c1` gave an XC50 of 792 nM.

As for `O=C(NC1CC1)c1ccc(N2CCC(Cc3ccccc3)CC2)c([N+](=O)[O-])c1`, the XC50 amounted to 614 nM.

In turn, `C[C@@H]1CN(C(c2cccc(O)c2)c2cccc(C(=O)N(C)c3cccc(F)c3)c2)[C@@H](C)CN1C(c1cccc(O)c1)c1cccc(C(=O)N(C)c2cccc(F)c2)c1` (stereo partly drawn) returned an XC50 of 918 nM.

For `O=C(Cn1c(CCc2cccc(F)c2F)cc(=O)c2cccnc21)N(CCCn1ccnc1)Cc1ccc(-c2ccc(C(F)(F)F)cc2)cc1`, the XC50 came to 797 nM.

`O=C(CSc1nnc(-c2ccccc2Br)[nH]1)c1c[nH]c2ccccc12` displayed an XC50 of 982 nM.

With `CCNc1cc(C(=O)N[C@@H](Cc2ccccc2)[C@H](O)CNCCc2cc(OC)cc(OC)c2)cc(N2CCCCS2(=O)=O)c1`, the XC50 was 1140 nM.

In the case of `CC(C)c1ccc(CN2CCC(NC(=O)c3ccc(-c4ccccc4F)s3)CC2)cc1`, the XC50 came to 1550 nM.

`C/C=C1\CN2CC[C@H]1C[C@@H]2[C@@H](O)c1ccnc2ccc(O)cc12` displayed an XC50 of 245 nM.

On to `Nc1ncnc2cc(-c3cccc(S(N)(=O)=O)c3)sc12`, for which the XC50 was 151 nM.

As for `Cc1cc(C2NC(=O)c3ccccc3N2)c(C)n1-c1ccc2c(c1)OCO2` (stereo not drawn), the XC50 came to 731 nM.

The compound `COc1ccc(CNC(=O)NC2CCN(c3ccnc(Nc4ccc(F)cc4)n3)C2)cc1` (stereo not drawn) gave an XC50 of 842 nM.

Regarding `Nc1nc(N)c2c(ccc3c2ccn3C2C=CCCC2)n1` (stereo not drawn), the XC50 came to 132 nM.

The compound `COc1ccc(OC)c2c1CC1NCC2c2c(OC)ccc(OC)c21` (stereo not drawn) came in with an XC50 of 971 nM.

For `CN1CCN(c2ccnc3ccc(NC(=O)Nc4ccc(Cl)cc4)cc23)CC1`, the XC50 was found to be 112 nM.

`COc1cccc(CN(C(=O)Nc2ccccc2F)[C@H]2C[C@H]3C(=O)Nc4cc(F)ccc4C(=O)N3C2)c1`: the XC50 turned out to be 841 nM.

`COC(=O)c1cccc(N2CCN(CCCNC(=O)/C(=C/C=C/c3cc4cc(Cl)c(Cl)cc4[nH]3)OC)CC2)c1` yielded an XC50 of 667 nM.

The compound `COc1ccc(C(=O)NCC(C)(C)c2nc(-c3ccc(Cl)c(O)c3)c(-c3ccncc3)[nH]2)cc1OCCN(C(C)C)C(C)C` yielded an XC50 of 643 nM.

In turn, `COc1ccc2nccc(N(C)CC3(O)CCC(NCc4ccc5c(n4)NC(=O)CS5)CC3)c2n1` (stereo not drawn) registered an XC50 of 700 nM.

In the case of `OC1CCC(Nc2ccc3ncc(-c4ccc(Cl)cc4)n3n2)CC1` (stereo not drawn), the XC50 worked out at 824 nM.

In turn, `CC(C)[C@@H](C(=O)NCc1cccc(C(F)(F)F)c1)N1C(=O)CCC1C(=O)Nc1ccc([N+](=O)[O-])cc1` (stereo partly drawn) returned an XC50 of 934 nM.

In turn, `C=CCN1C(=O)C(C(C)=O)=C(O)C1c1ccccc1` (stereo not drawn) displayed an XC50 of 53.8 nM.

`Cc1cc(SC(C)(C)C)cc2c(Cl)c(C(N)=O)cnc12` came in with an XC50 of 1090 nM.

For `CN1CCN(c2ccnc3cc4c(cc23)N(Cc2ccccc2)CC4)CC1`, the XC50 was found to be 1140 nM.

In turn, `CCCN1CCN(c2cc(NCC)c3c4c(onc24)-c2ccccc2C3=O)CC1` showed an XC50 of 1060 nM.

`O=C(Nc1ccc2c(c1)CCN(C1CCC1)CC2)c1ccc(-c2cn3ccccc3n2)cc1` had an XC50 of 879 nM.

With `COc1ccc(Nc2nccc(N3CCC(NC(=O)c4cc5ccccc5s4)C3)n2)cc1` (stereo not drawn), the XC50 was 759 nM.

In turn, `COc1ccc2nccc(N3CCC(SCCNCc4ccc5c(n4)NC(=O)CS5)C3)c2n1` (stereo not drawn) gave an XC50 of 253 nM.

For `CCCC(C)Nc1nc(C)cc(N[C@@H](CC(C)C)C(=O)NCc2ccc(C)cc2)n1` (stereo partly drawn), the XC50 came to 1010 nM.

As for `CN(CCCN(C)c1cc(NC(=O)c2ccc(F)cc2)ccn1)Cc1cccc(F)c1`, the XC50 was found to be 1220 nM.

Take `Cc1ccc(Cn2cnc3cc(C(=O)Nc4ccc(-c5cccc(CN(C)C)c5)cc4)ccc3c2=O)o1`: the XC50 amounted to 625 nM.

As to `CC(=O)c1cccc2c(NC(=O)Nc3ccc4nccc(N5CCN(C)CC5)c4c3)cccc12`, the XC50 worked out at 400 nM.

With `O=C(NCc1ccc(F)cc1)Nc1ccc(-c2ccc(-c3nc4ccccc4[nH]3)cc2)cc1`, the XC50 stood at 90.7 nM.

On to `CC(C)NCC(O)COc1ccc(Cc2ccc(OCC(O)CNC(C)C)cc2)cc1` (stereo not drawn), for which the XC50 was found to be 654 nM.

Turning to `O=C(Nc1cccc(-c2ccc(CN3CCCC3)cc2)c1)c1ccc(Cl)cc1`, the XC50 was 427 nM.

The compound `Cc1cccc2sc(N(CCCn3ccnc3)C(=O)C=Cc3cccs3)nc12` came in with an XC50 of 1280 nM.

Turning to `Cc1cc(F)ccc1[C@H]1C[C@H](N2CCOCC2)CCN1C(=O)N(C)[C@@H](C)c1cc(C(F)(F)F)cc(C(F)(F)F)c1`, the XC50 was 764 nM.
